{"source": "patent US8673903B2", "about": "“Substituted 8-alkoxy-2-aminotetralin derivatives, and use thereof” (Bayer Intellectual Property GmbH, priority 2010, dated 2014)", "key": {"[1]": {"biological_target": "T1, soluble guanylate cyclase (sGC) (Rattus norvegicus, UniProt P20595)", "T1 construct": "made in house", "T1 sequence (P20595 1-619)": "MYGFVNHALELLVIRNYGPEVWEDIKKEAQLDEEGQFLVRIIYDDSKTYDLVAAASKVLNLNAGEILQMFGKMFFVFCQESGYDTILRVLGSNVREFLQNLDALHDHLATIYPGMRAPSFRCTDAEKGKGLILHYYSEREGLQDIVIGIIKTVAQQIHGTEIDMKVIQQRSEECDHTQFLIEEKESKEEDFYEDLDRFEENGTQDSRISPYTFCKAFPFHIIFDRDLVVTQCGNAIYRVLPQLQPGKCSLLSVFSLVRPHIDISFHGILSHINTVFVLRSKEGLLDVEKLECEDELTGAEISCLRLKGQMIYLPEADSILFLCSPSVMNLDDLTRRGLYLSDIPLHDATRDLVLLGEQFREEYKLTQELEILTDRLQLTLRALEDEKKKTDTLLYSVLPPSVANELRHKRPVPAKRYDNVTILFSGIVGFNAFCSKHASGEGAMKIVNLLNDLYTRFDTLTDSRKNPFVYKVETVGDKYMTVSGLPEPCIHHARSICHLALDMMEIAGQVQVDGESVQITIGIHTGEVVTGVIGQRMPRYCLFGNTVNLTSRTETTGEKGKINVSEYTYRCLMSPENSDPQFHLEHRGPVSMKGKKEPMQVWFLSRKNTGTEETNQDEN", "T1 sequence (P19686 1-690 partner)": "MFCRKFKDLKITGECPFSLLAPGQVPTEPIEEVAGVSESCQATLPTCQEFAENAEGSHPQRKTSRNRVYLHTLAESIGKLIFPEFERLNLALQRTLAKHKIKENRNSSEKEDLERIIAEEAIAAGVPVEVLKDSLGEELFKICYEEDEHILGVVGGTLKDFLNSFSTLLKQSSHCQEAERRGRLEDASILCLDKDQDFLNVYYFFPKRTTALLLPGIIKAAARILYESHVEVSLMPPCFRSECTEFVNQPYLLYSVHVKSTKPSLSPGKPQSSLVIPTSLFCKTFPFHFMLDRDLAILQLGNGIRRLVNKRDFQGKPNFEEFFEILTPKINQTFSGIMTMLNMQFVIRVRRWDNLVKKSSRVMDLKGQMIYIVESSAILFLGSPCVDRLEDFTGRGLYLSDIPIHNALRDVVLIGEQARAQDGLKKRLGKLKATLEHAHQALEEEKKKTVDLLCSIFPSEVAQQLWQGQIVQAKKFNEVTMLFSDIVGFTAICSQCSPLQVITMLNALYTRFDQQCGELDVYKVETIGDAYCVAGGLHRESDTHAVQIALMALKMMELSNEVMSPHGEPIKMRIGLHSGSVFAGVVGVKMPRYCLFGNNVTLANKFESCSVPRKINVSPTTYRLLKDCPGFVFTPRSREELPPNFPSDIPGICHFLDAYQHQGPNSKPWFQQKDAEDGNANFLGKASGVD", "assay": "Stimulation of sGC enzyme activity (PPi luminescence detection)", "assay_type": "biochemical", "settings": "for EC50: read-out: EC50 (concentration at 50% of maximum efficacy), activating action at the sGC enzyme in vitro", "procedure": "B-2. Stimulation of sGC Enzyme Activity\nSoluble guanylate cyclase (sGC) converts on stimulation GTP into cGMP and pyrophosphate (PPi). PPi is detected with the aid of the assay described below. The signal produced in the assay increases as the reaction progresses and serves as a measure of the sGC enzyme activity under the given stimulation.\nTo carry out the assay, 29 μl of enzyme solution [0-10 nM soluble guanylate cyclase (prepared according to Honicka et al., J. Mol. Med. 77, 14-23 (1999)) in 50 mM TEA, 2 mM MgCl2, 0.1% BSA (fraction V), 0.005% Brij®, pH 7.5] are initially introduced into a microplate, and 1 μl of the substance to be tested (as a serially diluted solution in DMSO) is added. The mixture is incubated at room temperature for 10 min. Then 20 μl of detection mix [1.2 nM Firefly Luciferase (Photinus pyralis luciferase, Promega), 29 μM dehydroluciferin (prepared according to Bitler & McElroy, Arch. Biochem. Biophys. 72, 358 (1957)), 122 μM luciferin (Promega), 153 μM ATP (Sigma) and 0.4 mM DTT (Sigma) in 50 mM TEA, 2 mM MgCl2, 0.1% BSA (fraction V), 0.005% Brij®, pH 7.5] are added. The enzyme reaction is started by adding 20 μl of substrate solution [1.25 mM guanosine 5′-triphosphate (Sigma) in 50 mM TEA, 2 mM MgCl2, 0.1% BSA (fraction V), 0.005% Brij®, pH 7.5] and measured continuously in a luminometer. The extent of the stimulation by the substance to be tested can be determined relative to the signal of the unstimulated reaction.\nThe activation of heme-free guanylate cyclase is examined by addition of 25 μM of 1H-1,2,4-oxadiazolo[4,3-a]quinoxalin-1-one (ODQ) to the enzyme solution and subsequent incubation for 30 minutes and compared to the stimulation of the native enzyme."}, "[2]": {"test_system": "rabbit saphenous artery rings", "assay": "Vasorelaxant effect in vitro on phenylephrine-contracted saphenous artery rings", "design": "species or system Rabbits", "settings": "Oryctolagus cuniculus, contraction induced by phenylephrine", "procedure": "B-3. Vasorelaxant Effect In Vitro:\nRabbits are anesthetized and sacrificed by intravenous injection of thiopental sodium (about 50 mg/kg) and exsanguinated. The saphenous artery is removed and divided into rings 3 mm wide. The rings are mounted singly on in each case a pair of triangular hooks open at the end and made of 0.3 mm-thick special wire (Remanium®). Each ring is placed under an initial tension in 5 ml organ baths with Krebs-Henseleit solution which is at 37° C., is gassed with carbogen and has the following composition: NaCl 119 mM; KCl 4.8 mM; CaCl2×2 H2O 1 mM; MgSO4×7 H2O 1.4 mM; KH2PO4 1.2 mM; NaHCO3 25 mM; glucose 10 mM; bovine serum albumin 0.001%. The force of contraction is detected with Statham UC2 cells, amplified and digitized via A/D converters (DAS-1802 HC, Keithley Instruments, Munich) and recorded in parallel on chart recorders. Contractions are induced by addition of phenylephrine.\nAfter several (generally 4) control cycles, the substance to be investigated is added in each further run in increasing dosage, and the level of the contraction achieved under the influence of the test substance is compared with the level of the contraction reached in the last preceding run. The concentration necessary to reduce the contraction reached in the preceding control by 50% is calculated from this (IC50). The standard application volume is 5 μl. The proportion of DMSO in the bath solution corresponds to 0.1%."}, "[3]": {"biological_target": "T2, soluble guanylate cyclase (sGC), recombinant guanylate cyclase reporter cell line (CHO) (Rattus norvegicus, UniProt P20595)", "T2 construct": "expressed in transfected cells; host or cells: CHO", "T2 sequence (P20595 1-619)": "T1 sequence (P20595 1-619)", "T2 sequence (P19686 1-690 partner)": "T1 sequence (P19686 1-690 partner)", "assay": "Action at a recombinant guanylate cyclase reporter cell line (CHO reporter cell)", "assay_type": "cell-based", "procedure": "B-1. Action at a Recombinant Guanylate Cyclase Reporter Cell Line\nThe cellular action of the compounds according to the invention is determined at a recombinant guanylate cyclase reporter cell line, as described in F. Wunder et al., Anal. Biochem. 339, 104-112 (2005)."}}, "data": [{"molecule": "CC(C)(C)c1ccc(COc2cccc3c2CC(N(CCCCC(=O)O)Cc2ccc(C(=O)O)cc2)CC3)cc1", "note": "(racemic) [Example 1, rac-4-{[{8-[(4-tert-Butylbenzyl)oxy]-1,2,3,4-tetrahydronaphthalen-2-yl}(4-carboxybutyl)amino]-methyl}benzoic acid]", "values": [{"measurement": "MEC (minimum effective concentration), activating action at the sGC enzyme in vitro", "setting": "[1]", "result": 0.12, "unit": "nM"}, {"measurement": "EC50", "setting": "[1]", "result": 8.5, "unit": "nM"}, {"measurement": "IC50", "setting": "[2]", "result": 113, "unit": "nM"}, {"measurement": "MEC (minimum effective concentration), sGC-activating activity in the CHO reporter cell in vitro", "setting": "[3]", "result": 0.3, "unit": "nM"}]}, {"molecule": "O=C(O)CCCCN(Cc1ccc(C(=O)O)cc1)C1CCc2cccc(OCc3ccc(CCc4ccccc4)cc3)c2C1", "note": "(single isomer, unassigned) [Example 5]", "values": [{"measurement": "MEC (minimum effective concentration), activating action at the sGC enzyme in vitro", "setting": "[1]", "result": 0.13, "unit": "nM"}, {"measurement": "EC50", "setting": "[1]", "result": 1.4, "unit": "nM"}, {"measurement": "IC50", "setting": "[2]", "result": 9140, "unit": "nM"}, {"measurement": "MEC (minimum effective concentration), sGC-activating activity in the CHO reporter cell in vitro", "setting": "[3]", "result": 0.3, "unit": "nM"}]}, {"molecule": "O=C(O)CCCCN(Cc1ccc(C(=O)O)cc1)C1CCc2cccc(OCc3ccc(CCc4ccccc4)cc3)c2C1", "note": "(centres unmarked) [Example 4]", "values": [{"measurement": "MEC (minimum effective concentration), activating action at the sGC enzyme in vitro", "setting": "[1]", "result": 0.7, "unit": "nM"}, {"measurement": "EC50", "setting": "[1]", "result": 7.5, "unit": "nM"}, {"measurement": "MEC (minimum effective concentration), sGC-activating activity in the CHO reporter cell in vitro", "setting": "[3]", "result": 3.0, "unit": "nM"}]}, {"molecule": "O=C(O)CCCCN(Cc1ccc(C(=O)O)cc1)C1CCc2cccc(OCc3ccc(CCc4ccccc4)cc3)c2C1", "note": "(centres unmarked) [Example 6]", "values": [{"measurement": "IC50", "setting": "[2]", "result": 4380, "unit": "nM"}]}, {"molecule": "O=C(O)CCCCN(Cc1ccc(C(=O)O)cc1)C1CCc2cccc(OCCCN3CCCC3=O)c2C1", "note": "(centres unmarked) [Example 7]", "values": [{"measurement": "MEC (minimum effective concentration), activating action at the sGC enzyme in vitro", "setting": "[1]", "result": 830, "unit": "nM"}]}, {"molecule": "O=C(O)CCCCN(Cc1ccc(C(=O)O)cc1)C1CCc2cccc(OCCCN3CCOCC3=O)c2C1", "note": "(centres unmarked) [Example 9]", "values": [{"measurement": "MEC (minimum effective concentration), activating action at the sGC enzyme in vitro", "setting": "[1]", "result": 700, "unit": "nM"}]}, {"molecule": "CC(C)CCCCOc1cccc2c1CC(N(CCCCC(=O)O)Cc1ccc(C(=O)O)cc1)CC2", "note": "(centres unmarked) [Example 10]", "values": [{"measurement": "MEC (minimum effective concentration), activating action at the sGC enzyme in vitro", "setting": "[1]", "result": 48, "unit": "nM"}, {"measurement": "EC50", "setting": "[1]", "result": 620, "unit": "nM"}, {"measurement": "MEC (minimum effective concentration), sGC-activating activity in the CHO reporter cell in vitro", "setting": "[3]", "result": 30, "unit": "nM"}]}, {"molecule": "O=C(O)CCCCN(Cc1ccc(C(=O)O)cc1)C1CCc2cccc(OCc3cccc(F)c3)c2C1", "note": "(centres unmarked) [Example 11]", "values": [{"measurement": "MEC (minimum effective concentration), activating action at the sGC enzyme in vitro", "setting": "[1]", "result": 200, "unit": "nM"}, {"measurement": "MEC (minimum effective concentration), sGC-activating activity in the CHO reporter cell in vitro", "setting": "[3]", "result": 300, "unit": "nM"}]}, {"molecule": "CC(C)(C)c1nc(COc2cccc3c2CC(N(CCCCC(=O)O)Cc2ccc(C(=O)O)cc2)CC3)no1", "note": "(centres unmarked) [Example 12]", "values": [{"measurement": "MEC (minimum effective concentration), activating action at the sGC enzyme in vitro", "setting": "[1]", "result": 205, "unit": "nM"}]}]}
